Data as given in patent US8268885B2, “Entry inhibitors of the HIV virus” (priority 2003, dated 2012).
One block for each compound: values may come before it.

Legend:
Format in all cases: cell-based
[1] = toxicity assay using MT4-CMV-EGFP cells (reduced expression of GFP reporter); details: human
Protocol: A toxicity assay wherein a reduced expression of the GFP reporter protein (Mt4-CMV-EGFP cells) serves as a marker for cellular toxicity of a test compound can be used to measure the toxicity of the present compounds.
(§1) The compounds were tested in the anti-viral replication assay using the MT4-LTR-EGFP cells and in the ERA assay. Toxicity was measured using MT4-CMV-EGFP cells.

[2] = system: cell-cell fusion between cell line persistently expressing HIV and a cell line expressing CD4 and CXCR4; assay: entry reporter assay (ERA): inhibition of cell-cell fusion, FACS read-out; details: for EC50: Human immunodeficiency virus 1, read-out: ERA assay EC50; for ERA assay % inh: cell-cell fusion, concentration not given
Protocol: as §1

HIV = assay: anti-viral replication assay using MT4-LTR-EGFP cells; details: Human immunodeficiency virus 1, read-out: antiviral EC50
Protocol: as §1

Structure (SMILES): COc1ccc(S(=O)(=O)Nc2ccc(Oc3ccc(NC(=O)COC(C)=O)cc3)cc2)cc1 [Compound 1, acetic acid {4-[4-(4-methoxy-benzenesulfonylamino)-phenoxy]-phenylcarbamoyl}-methyl ester]
CC50 [1]: > 27.7 µM
EC50 [2]: 92 µM
ERA assay % inh [2]: 89%
EC50 (HIV): 1.69 µM

Structure (SMILES): O=C(Nc1ccc(Oc2cccc3cnccc23)cc1)c1ccc([N+](=O)[O-])cc1 [Compound 4]
CC50 [1]: > 100 µM
EC50 [2]: > 200 µM
ERA assay % inh [2]: 30%
EC50 (HIV): 5.34 µM

EC50 (HIV): 3.29 µM
Structure (SMILES): N#Cc1ccc(C(=O)Nc2ccc(Oc3cccc4cnccc34)cc2)cc1 [Compound 5]
CC50 [1]: > 100 µM

Structure (SMILES): O=C(O)c1ccc(S(=O)(=O)Nc2ccc(Oc3cccc4cnccc34)cc2)cc1 [Compound 6]
CC50 [1]: > 100 µM
EC50 [2]: 182 µM
ERA assay % inh [2]: 52%
EC50 (HIV): 18.6 µM

Structure (SMILES): O=C(CNCCN1CCCC1)Nc1ccc(Oc2cccc3c2N(C(=O)CNCCN2CCCC2)CCC3)cc1 [Compound 7]
CC50 [1]: > 100 µM
EC50 [2]: > 200 µM
ERA assay % inh [2]: 29%
EC50 (HIV): 57.7 µM

Structure (SMILES): O=C(CN[C@@H](Cc1ccccc1)C(=O)O)Nc1ccc(Oc2cccc(C(=O)O)c2)cc1C(F)(F)F [Compound 8]
CC50 [1]: > 100 µM
EC50 [2]: > 200 µM
ERA assay % inh [2]: 3%
EC50 (HIV): > 100 µM

Structure (SMILES): O=C(Cc1ccccc1)Nc1ccc(Oc2ccc(NC(=O)Cc3ccccc3)cc2)cc1 [Compound 10]
CC50 [1]: > 32 µM
EC50 [2]: > 100 µM
ERA assay % inh [2]: 48%
EC50 (HIV): > 32 µM

Structure (SMILES): COc1cccc(C(=O)Nc2ccc(Oc3ccc(NC(=O)c4cccc(OC)c4)cc3)cc2)c1 [Compound 11]
CC50 [1]: > 32 µM
EC50 [2]: 68.9 µM
ERA assay % inh [2]: 64%
EC50 (HIV): > 32 µM

Structure (SMILES): O=C(Nc1ccc(Oc2ccc(NC(=O)c3cccc([N+](=O)[O-])c3)cc2)cc1)c1cccc([N+](=O)[O-])c1 [Compound 12]
CC50 [1]: 54.2 µM
EC50 [2]: > 200 µM
ERA assay % inh [2]: 17%
EC50 (HIV): 41.3 µM

Structure (SMILES): CN1CCN(CC(=O)Nc2ccc(Oc3ccc(NC(=O)CN4CCN(C)CC4)cc3)cc2)CC1 [Compound 16]
CC50 [1]: > 100 µM
EC50 [2]: > 200 µM
ERA assay % inh [2]: 42%
EC50 (HIV): 55 µM

Structure (SMILES): O=C(COc1ccccc1)Nc1ccc(Oc2cccc3c2N(C(=O)COc2ccccc2)CCC3)cc1 [Compound 20]
CC50 [1]: > 32 µM
EC50 [2]: > 100 µM
ERA assay % inh [2]: 39%
EC50 (HIV): 3.25 µM

Structure (SMILES): CCCCc1ccc(C(=O)Nc2ccc(Oc3cccc4c3N(C(=O)c3ccc(CCCC)cc3)CCC4)cc2)cc1 [Compound 21]
CC50 [1]: > 100 µM
EC50 [2]: > 200 µM
ERA assay % inh [2]: 9%
EC50 (HIV): > 34 µM

Structure (SMILES): O=C(Nc1ccc(Oc2cccc3c2N(C(=O)c2ccco2)CCC3)cc1)c1ccco1 [Compound 23, Furan-2-carboxylic acid {4-[1-(furan-2-carbonyl)-1,2,3,4-tetrahydro-quinolin-8-yloxy]-phenyl}-amide]
CC50 [1]: 34.2 µM
EC50 [2]: 123 µM
ERA assay % inh [2]: 92%
EC50 (HIV): 11.2 µM

Structure (SMILES): O=C(COc1ccccc1)Nc1ccc(Oc2ccc([N+](=O)[O-])cc2)cc1 [Compound 24]
CC50 [1]: > 100 µM
EC50 [2]: 78.4 µM
ERA assay % inh [2]: 68%
EC50 (HIV): 19.5 µM

Structure (SMILES): COc1ccc(S(=O)(=O)Nc2ccc(Oc3ccc([N+](=O)[O-])cc3)cc2)cc1 [Compound 29]
CC50 [1]: 61.6 µM
EC50 [2]: 177 µM
ERA assay % inh [2]: 59%
EC50 (HIV): 1.18 µM

EC50 (HIV): 0.37 µM
Structure (SMILES): COc1cccc(C(=O)Nc2ccc(Oc3ccc(NC(=O)COc4ccccc4)cc3)cc2)c1 [Compound 30]
CC50 [1]: 3.85 µM

Structure (SMILES): O=C(COc1ccccc1)Nc1ccc(Oc2ccc(NC(=O)c3cccc([N+](=O)[O-])c3)cc2)cc1 [Compound 31]
CC50 [1]: 3.41 µM
EC50 [2]: > 100 µM
ERA assay % inh [2]: 13%
EC50 (HIV): 0.43 µM

Structure (SMILES): O=C(COc1ccccc1)Nc1ccc(Oc2ccc(NC(=O)c3ccc4c(c3)OCO4)cc2)cc1 [Compound 32]
CC50 [1]: 19.9 µM
EC50 [2]: > 200 µM
ERA assay % inh [2]: 29%
EC50 (HIV): 4.17 µM

Structure (SMILES): O=C(COc1ccccc1)Nc1ccc(Oc2ccc(NC(=O)Cc3ccccc3)cc2)cc1 [Compound 33]
CC50 [1]: 30.2 µM
EC50 [2]: 196 µM
ERA assay % inh [2]: 52%
EC50 (HIV): 5.01 µM

Structure (SMILES): O=C(COc1ccccc1)Nc1ccc(Oc2ccc(NC(=O)c3ccco3)cc2)cc1 [Compound 34]
CC50 [1]: 83.2 µM
EC50 [2]: > 200 µM
ERA assay % inh [2]: 41%
EC50 (HIV): 1.24 µM

Structure (SMILES): CC(=O)OCC(=O)Nc1ccc(Oc2ccc(NC(=O)COc3ccccc3)cc2)cc1 [Compound 35]
CC50 [1]: 23.6 µM
EC50 [2]: 150 µM
ERA assay % inh [2]: 55%
EC50 (HIV): 3.28 µM

Structure (SMILES): COc1ccc(S(=O)(=O)Nc2ccc(Oc3ccc(NC(=O)c4cccc(OC)c4)cc3)cc2)cc1 [Compound 36]
CC50 [1]: 5.87 µM
EC50 [2]: > 200 µM
ERA assay % inh [2]: 9%
EC50 (HIV): 1.05 µM

EC50 (HIV): 3.92 µM
Structure (SMILES): COc1ccc(S(=O)(=O)Nc2ccc(Oc3ccc(NC(=O)c4cccc([N+](=O)[O-])c4)cc3)cc2)cc1 [Compound 37]
CC50 [1]: > 32 µM

Structure (SMILES): COc1ccc(S(=O)(=O)Nc2ccc(Oc3ccc(NC(=O)Cc4ccccc4)cc3)cc2)cc1 [Compound 39]
CC50 [1]: > 100 µM
EC50 [2]: > 100 µM
ERA assay % inh [2]: 45%
EC50 (HIV): 1.56 µM

Structure (SMILES): COc1ccc(S(=O)(=O)Nc2ccc(Oc3ccc(NC(=O)c4ccco4)cc3)cc2)cc1 [Compound 40]
CC50 [1]: 22.4 µM
EC50 [2]: 40.9 µM
ERA assay % inh [2]: 79%
EC50 (HIV): 0.15 µM

Structure (SMILES): O=C(COc1ccccc1)NCc1cccc(Oc2ccc(NC(=O)COc3ccccc3)cc2)c1 [Compound 42]
CC50 [1]: 46.5 µM
EC50 [2]: > 200 µM
ERA assay % inh [2]: 37%
EC50 (HIV): 3.77 µM

Structure (SMILES): O=C(COCc1ccccc1)NCc1cccc(Oc2ccc(NC(=O)COCc3ccccc3)cc2)c1 [Compound 43]
CC50 [1]: > 32 µM
EC50 [2]: 83.6 µM
ERA assay % inh [2]: 54%
EC50 (HIV): 11.8 µM

Structure (SMILES): CCCCc1ccc(C(=O)NCc2cccc(Oc3ccc(NC(=O)c4ccc(CCCC)cc4)cc3)c2)cc1 [Compound 44]
CC50 [1]: > 32 µM
EC50 [2]: > 200 µM
ERA assay % inh [2]: 22%
EC50 (HIV): 2 µM
